In patent US5525627A, “Esters of acyl carnitines with long-chain aliphatic alcohols and pharmaceutical compositions containing same having antimycotic activity” (Sigma-Tau Industrie Farmaceutiche Riunite S.p.A., priority 1992, dated 1996):

Key:
[1] = system: Candida albicans (562); assay: MIC for yeast and yeast-like strains; format: cell-based; conditions: 48 hours, 35° C., read-out: Minimal Inhibitory Concentration (MIC)
Description: (§1) The following strains were used (the number of strains is in brackets): Candida (13); Criptococcus (2); Saccharormyces (1); Torulopsis (1).
(§2) Yeast Nitrogen Base supplemented with 0.15% asparagine and 1.0% glucose (as carbon source) was the medium utilized in the assays.
(§3) This medium was buffered with 0.165 M 2-(N-morpholino) propane sulfonic acid (MOPS), a non-chelating buffer. […]
(§4) The inoculum was prepared from an overnight broth culture (a 48-hour culture only for Cryptococcus) in Sabouraud broth and appropriately diluted to yield a final suspension containing approximately 5.0×10^6 Colony Forming Units per ml (CFU/ml), when compared to the Mc Farland's standard control (BRAY W. E., Clinical Laboratory Methods, 5th Ed. C. V. MOSBY, St. Louis, Mo, 1957).
(§5) After further diluting (1:50), a […] volume of such fungal suspensions and an equal volume of the substance solutions were distributed into each well of a microtiter plate (96 wells, round bottom). Such a procedure eventually allowed for an "in vitro" antimycotic activity assay utilizing final fungal inocula of approximately 5.0×10^4 CFU/ml.

[2] = system: Candida albicans (A 54); assay: MIC for yeast and yeast-like strains; format: cell-based; conditions: 48 hours, 35° C., read-out: Minimal Inhibitory Concentration (MIC)
Description: as §1, §2, §3, §4, §5

[3] = system: Candida albicans (Ca 2); assay: MIC for yeast and yeast-like strains; format: cell-based; conditions: 48 hours, 35° C., read-out: Minimal Inhibitory Concentration (MIC)
Description: as §1, §2, §3, §4, §5

[4] = system: Candida krusei (ISS 1); assay: MIC for yeast and yeast-like strains; format: cell-based; conditions: Pichia kudriavzevii; 48 hours, 35° C.; read-out: Minimal Inhibitory Concentration (MIC)
Description: as §1, §2, §3, §4, §5

[5] = system: Candida tropicalis (5705); assay: MIC for yeast and yeast-like strains; format: cell-based; conditions: 48 hours, 35° C., read-out: Minimal Inhibitory Concentration (MIC)
Description: as §1, §2, §3, §4, §5

[6] = system: Cryptococcus neoformans (4711); assay: MIC for yeast and yeast-like strains; format: cell-based; conditions: 48 hours, 35° C., read-out: Minimal Inhibitory Concentration (MIC)
Description: as §1, §2, §3, §4, §5

[7] = system: Saccharomyces cerevisiae (ATCC 7752); assay: MIC for yeast and yeast-like strains; format: cell-based; conditions: ATCC7752, 48 hours, 35° C., read-out: Minimal Inhibitory Concentration (MIC)
Description: as §1, §2, §3, §4, §5

[8] = system: Torulopsis candida (D.S.); assay: MIC for yeast and yeast-like strains; format: cell-based; conditions: Suzukiozyma candida; 48 hours, 35° C.; read-out: Minimal Inhibitory Concentration (MIC)
Description: as §1, §2, §3, §4, §5

[9] = system: Candida albicans (PG); assay: MIC and MFC for yeast and yeast-like strains; format: cell-based; conditions: 48 hours, 35° C., read-out: Minimal Inhibitory Concentration (MIC)
Description: as §1, §2
(§6) This medium was buffered with 0.165 M 2-(N-morpholino) propane sulfonic acid (MOPS), a non-chelating buffer.
(§7) Antimicrob. Agents Cheroother. Aug. 34.8:1542-1545).
as §4, §5
(§8) The minimal fungicidal concentration was evaluated by spot-transferring onto Petri dishes, containing Sabouraud agar, 0.01-ml volumes of all the samples showing no visible fungal growth.

[10] = system: Candida albicans (ATCC 2091); assay: MIC for yeast and yeast-like strains; format: cell-based; conditions: ATCC2091, 48 hours, 35° C., read-out: Minimal Inhibitory Concentration (MIC)
Description: as §1, §2, §6, §7, §4, §5

[11] = system: Candida albicans (ISS 1); assay: MIC for yeast and yeast-like strains; format: cell-based; conditions: 48 hours, 35° C., read-out: Minimal Inhibitory Concentration (MIC)
Description: as §1, §2, §6, §7, §4, §5

[12] = system: Candida glabrata (ISS 1); assay: MIC for yeast and yeast-like strains; format: cell-based; conditions: Nakaseomyces glabratus; 48 hours, 35° C.; read-out: Minimal Inhibitory Concentration (MIC)
Description: as §1, §2, §6, §7, §4, §5

[13] = system: Candida guilliermondii (ISS 1); assay: MIC for yeast and yeast-like strains; format: cell-based; conditions: Meyerozyma guilliermondii; 48 hours, 35° C.; read-out: Minimal Inhibitory Concentration (MIC)
Description: as §1, §2, §6, §7, §4, §5

[14] = system: Candida parapsilosis (ISS 1); assay: MIC for yeast and yeast-like strains; format: cell-based; conditions: Lodderomyces parapsilosis; 48 hours, 35° C.; read-out: Minimal Inhibitory Concentration (MIC)
Description: as §1, §2, §6, §7, §4, §5

[15] = system: Candida pseudotropicalis (EC 1); assay: MIC for yeast and yeast-like strains; format: cell-based; conditions: Kluyveromyces marxianus; 48 hours, 35° C.; read-out: Minimal Inhibitory Concentration (MIC)
Description: as §1, §2, §6, §7, §4, §5

[16] = system: Candida tropicalis (ISS 1); assay: MIC for yeast and yeast-like strains; format: cell-based; conditions: 48 hours, 35° C., read-out: Minimal Inhibitory Concentration (MIC)
Description: as §1, §2, §6, §7, §4, §5

[17] = system: Cryptococcus neoformans (ISS 1); assay: MIC for yeast and yeast-like strains; format: cell-based; conditions: 48 hours, 35° C., read-out: Minimal Inhibitory Concentration (MIC)
Description: as §1, §2, §6, §7, §4, §5

[18] = system: yeast-like fungi; assay: MIC / MFC for yeast-like fungi, all strains; format: cell-based, Candida, Cryptococcus, Saccharomyces, Torulopsis; conditions: versus susceptible strains; read-out: Mean MIC values
Description: as §1, §2, §3, §4, §5, §8

[19] = system: Aspergillus fumigatus (1/A); assay: MIC for filamentous fungi; format: cell-based; conditions: read-out: Minimal Inhibitory Concentration (MIC)
Description: (§9) The following strains were used (the number of strains is in brackets): Aspergillus (5); Fusarium (1); Mucor (1); Penicillium (1).
(§10) The tested substances were: ST 712, ST 722, ST 982, ST 983, ST 1000, ST 1001, ST 1032, ST 1033, ST 1034, ST 1036, ST 1037, ST 1038, ST 1050, ST 1051, ST 1052, ST 1053. The assay medium was the same as the one used in the previous study. The conidia from 72-hour cultures in Sabouraud agar, collected by washing with Sabouraud medium and Tween 80 (one drop of Tween per 10 ml of medium), were utilized as inoculum (5.0×10^4 CFU/ml).
(§11) The assay was performed using the same procedure as described for yeast-like fungi.
(§12) Also the evaluation of MIC and MFC was as reported previously.

[20] = system: Aspergillus fumigatus (2/A); assay: MIC for filamentous fungi; format: cell-based; conditions: read-out: Minimal Inhibitory Concentration (MIC)
Description: as §9, §10, §11, §12

[21] = system: Aspergillus fumigatus (ATCC 28212); assay: MIC for filamentous fungi; format: cell-based; conditions: ATCC28212, read-out: Minimal Inhibitory Concentration (MIC)
Description: as §9, §10, §11, §12

[22] = system: Aspergillus fumigatus (C/1); assay: MIC for filamentous fungi; format: cell-based; conditions: read-out: Minimal Inhibitory Concentration (MIC)
Description: as §9, §10, §11, §12

[23] = system: Aspergillus niger (ATCC 16404); assay: MIC for filamentous fungi; format: cell-based; conditions: ATCC16404, read-out: Minimal Inhibitory Concentration (MIC)
Description: as §9, §10, §11, §12

[24] = system: Fusarium sp. (ISS 1); assay: MIC for filamentous fungi; format: cell-based; conditions: read-out: Minimal Inhibitory Concentration (MIC)
Description: as §9, §10, §11, §12

[25] = system: Mucor mucedo (ATCC 7941); assay: MIC for filamentous fungi; format: cell-based; conditions: ATCC7941, read-out: Minimal Inhibitory Concentration (MIC)
Description: as §9, §10, §11, §12

[26] = system: Penicillium sp. (1302); assay: MIC for filamentous fungi; format: cell-based; conditions: read-out: Minimal Inhibitory Concentration (MIC)
Description: as §9, §10, §11, §12

[27] = system: filamentous fungi; assay: MIC / MFC for filamentous fungi, all strains; format: cell-based, Aspergillus, Fusarium, Mucor, Penicillium; conditions: versus susceptible strains; read-out: Mean MIC values
Description: as §9, §10, §11, §12

[28] = system: Epidermophyton floccosum (IHEM 3495); assay: MIC for dermatophytic fungi; format: cell-based; conditions: 35° C., 96 hours, read-out: Minimal Inhibitory Concentration (MIC)
Description: (§13) The following strains were used: Trichophyton menthagrophytes ATCC 9533, Trichophyton rubrum IHEM 4274, Microsporum canis IHEM 3522, Epydermophyton floccosum IHEM 3495. The tested substances were: ST 722, ST 1033, ST 1037, ST 1050, ST 1051, ST 1052,. ST 1053.
(§14) The assay was performed following the same procedure described for the yeasts, by using 7-day fungi cultures grown at 30° C. in Potato Dextrose agar, and harvested with Sabouraud broth and Tween 80 (0.5%).
(§15) After washing with Yeast Nitrogen Base, supplemented with asparagine and glucose (as carbon source), the fungal suspension was fragmented using a tissue grinder until the largest clumps or aggregates were undetectable within the grinder. This fungal suspension was then appropriately diluted in YNB to yield a concentration of 2.0×10^5 infective particles/ml (small mycelium fragments, micro-and macroaleuriospores).
(§16) Volumes of 100 μl both of the fungal suspensions and substance solutions, two-fold serially diluted in assay medium, were distributed into each well of a microtiter plate (96 wells, round bottom), which was incubated at 35° C. for 96 hours.

[29] = system: Microsporum canis (IHEM 3522); assay: MIC for dermatophytic fungi; format: cell-based; conditions: 35° C., 96 hours, read-out: Minimal Inhibitory Concentration (MIC)
Description: as §13, §14, §15, §16

[30] = system: Trichophyton menthagrophites (ATCC 9533); assay: MIC for dermatophytic fungi; format: cell-based; conditions: ATCC9533, 35° C., 96 hours, read-out: Minimal Inhibitory Concentration (MIC)
Description: as §13, §14, §15, §16

[31] = system: Trichophyton rubrum (IHEM 4274); assay: MIC for dermatophytic fungi; format: cell-based; conditions: 35° C., 96 hours, read-out: Minimal Inhibitory Concentration (MIC)
Description: as §13, §14, §15, §16

[32] = system: dermatophytic fungi; assay: MIC / MFC for dermatophytic fungi, all strains; format: cell-based, Trichophyton, Microsporum, Epidermophyton; conditions: versus susceptible strains
Description: as §13, §14, §15, §16

CCCCCCCCCCCCOC(=O)C[C@H](C[N+](C)(C)C)OC(=O)CC(C)C [ST 1037]
MIC [1]: 1.56 µg/mL
MIC [2]: 1.56 µg/mL
MIC [3]: 1.56 µg/mL
MIC [4]: 1.56 µg/mL
MIC [5]: 3.12 µg/mL
MIC [6]: 0.78 µg/mL
MIC [7]: 3.12 µg/mL
MIC [8]: 3.12 µg/mL
MIC [9]: 3.12 µg/mL
MIC [10]: 1.56 µg/mL
MIC [11]: 3.12 µg/mL
MIC [12]: 3.12 µg/mL
MIC [13]: 6.25 µg/mL
MIC [14]: 3.12 µg/mL
MIC [15]: 6.25 µg/mL
MIC [16]: 3.12 µg/mL
MIC [17]: 1.56 µg/mL
MIC [18]: 2.8 µg/mL
MIC [19]: 6.25 µg/mL
MIC [20]: 6.25 µg/mL
MIC [21]: 6.25 µg/mL
MIC [22]: 6.25 µg/mL
MIC [23]: 6.25 µg/mL
MIC [24]: 3.12 µg/mL
MIC [25]: 12.5 µg/mL
MIC [26]: 6.25 µg/mL
MIC [27]: 6.64 µg/mL
MIC [28]: 25 µg/mL
MIC [29]: 12.5 µg/mL
MIC [30]: 12.5 µg/mL
MIC [31]: 6.25 µg/mL
MIC [32]: 14.1 µg/mL
